In PMC6781499 (Pharmaceutics, 2019):
Read-outs that look alike come from different tables or passages of the source.

What was measured:
[1] = system: ovariectomized (OVX) mice; set-up: method as in PMID 26975635; conditions: orally 10–20 mg/kg daily for 4 weeks; cited from earlier work
[2] = Stability of Ewha-18278 in rat plasma (short-term, long-term, freeze-thaw, post-preparative); format: in vitro ADME; conditions: n = 3; for Stability 37 °C, 6 h / Stability Freeze-thaw / Stability RT, 6 h / Stability −20 °C, 4-W / Stability −70 °C, 4-W: rat plasma
[3] = system: bone marrow-derived macrophages (BMMs); set-up: method as in PMID 26975635; conditions: in vitro; cited from earlier work
NOX4 = system: NOX4; set-up: method as in PMID 26975635; conditions: in vitro; cited from earlier work
[4] = Solubility (aqueous / in co-solvent formulation); format: physicochemical
NOX1 = system: NOX1; set-up: method as in PMID 26975635; conditions: in vitro; cited from earlier work
NOX2 = system: NOX2; set-up: method as in PMID 26975635; conditions: in vitro; cited from earlier work
[5] = Pharmacokinetics of Ewha-18278 after IV and oral administration to rats (non-compartmental analysis, HPLC/UV plasma assay); format: in vivo, Sprague-Dawley rats; conditions: for F (absolute BA): PO 20 mg/kg vs IV 2 mg/kg
Description: The plasma sample (50 µL) with IS was deproteinized with twice the volume of acetonitrile (ACN). All HPLC analyses were performed on an Agilent 1100 series system (Palo Alto, CA, USA). Capcell-pak C18 MG120 column (3.0 mm × 250 mm, 5 µm, Shiseido, Tokyo, Japan) was the analytical column used. All the prepared samples were eluted with acetonitrile and water (65:35, v/v) containing 0.1% trifluoroacetic acid (TFA) at a flow rate of 0.5 mL/min. The sample reservoir and column oven were maintained at 4 °C and 40 °C, respectively. UV detection was performed at 284 nm and the injection volume was 30 µL.
All the animal procedures were approved by the Institutional Animal Care and Use Committee of Ewha Womans University (IACUC) (No. 2010-2-5, approved on 19 February 2010), Seoul, Korea. Seven-week-old male Sprague-Dawley rats (200–240 g) were used for the PK experiments.
The DMSO-based formulations were comprised of 10% DMSO and 90% saline-based solution (25% Cremophor® EL, 5% polyethylene glycol 400, 0.5% Tween® and 69.5% saline, v/v/v/v). The diazepam injection-based formulation applicable to humans was composed of 40% propylene glycol, 10% dehydrated ethanol, and 50% water (v/v/v). […] These concentrations were utilized to examine the effect of concentration on the PK parameters of the compound.
The rats were divided into five groups on the day of the drug administration. Two groups (n = 6) were administered the DMSO-based formulation: IV injection of 2 mg/kg and oral administration of 20 mg/kg. Three groups (n = 5–6) were treated with the diazepam injection-based formulation: IV injection of 2 mg/kg and oral administration of 20 mg/kg in two different concentrations (1 mg/mL and 2 mg/mL). The common carotid artery was catheterized for blood sampling. Blood sampling (0.2 mL) was conducted at 0, 0.033, 0.083, 0.25, 0.5, 1, 2, 4, 6, 10, and 24 h for the IV group and 0, 0.083, 0.25, 0.5, 1, 2, 4, 6, 10, 24, and 34 h for PO groups. Plasma samples mixed with IS (Ewha-18212) were analyzed by the HPLC system.

[6] = IV 2 mg/kg, diazepam injection-based formulation (1 mg/mL)
[7] = male, Sprague-Dawley, rat, plasma, iv, 2 mg/kg, IV 2 mg/kg, DMSO formulation (1 mg/mL)
[8] = male, Sprague-Dawley, rat, plasma, po, 20 mg/kg, PO 20 mg/kg, DMSO formulation (2 mg/mL)
[9] = male, Sprague-Dawley, rat, plasma, po, 20 mg/kg, PO 20 mg/kg, diazepam injection-based formulation (2 mg/mL)

## CCCc1c(-c2ccccc2)nn(-c2ccccn2)c1O [Ewha-18278]
[1]
  Bone strength / cortical bone thickness: induced bone strength by increasing cortical bone thickness
[2]; high QC concentration
  Stability Post-prep.: 103%
  Stability 37 °C, 6 h: 87.5%
  Stability Freeze-thaw: 86.0%
  Stability RT, 6 h: 93.4%
  Stability −20 °C, 4-W: 90.4%
  Stability −70 °C, 4-W: 97.5%
[2]; low QC concentration
  Stability Post-prep.: 103%
  Stability 37 °C, 6 h: 89.0%
  Stability Freeze-thaw: 90.4%
  Stability −20 °C, 4-W: 99.4%
  Stability −70 °C, 4-W: 100%
[2]; low QC concentration, vs freshly prepared QC samples
  Stability RT, 6 h: 94.5%
[3]
  Effect on responses of BMMs to RANKL: inhibited
NOX4
  Effect on NOX4 activity: directly interfering with the activity
[4]; mixture of propylene glycol, dehydrated ethanol, and water
  Dissolution in co-solvents: completely dissolved
[4]; salt formation
  Solubility of the hydrochloride salt relative to free form #2: strongly enhanced the solubility
[4]; water
  Aqueous solubility: highly insoluble in water
NOX1
  Effect on NOX1 activity: directly interfering with the activity
NOX2
  Effect on NOX2 activity: directly interfering with the activity
[5]; IV 2 mg/kg, DMSO formulation (1 mg/mL)
  Clt: 0.216 ± 0.084 L/h
[5]; [6]
  Clt: 0.250 ± 0.072 L/h
  Vd: 1.52 ± 1.17 L
[5]; DMSO formulation (2 mg/mL)
  F (absolute BA): 62.4%
[5]; diazepam injection-based formulation (1 mg/mL)
  F (absolute BA): 67.2%
[5]; diazepam injection-based formulation (2 mg/mL)
  F (absolute BA): 43.0%
[5]; PO 20 mg/kg, DMSO formulation (2 mg/mL)
  Clt/F: 0.327 ± 0.164 L/h
[5]; PO 20 mg/kg, DMSO formulation (2 mg/mL), 20 mg/kg
  AUCinf: 19400 ± 8690 ng·h/mL
[5]; PO 20 mg/kg, DMSO-based and diazepam injection-based formulations
  BA (absolute), all groups / both formulations: more than 40%
[5]; PO 20 mg/kg, diazepam injection-based formulation (1 mg/mL)
  Clt/F: 0.531 ± 0.370 L/h
[5]; PO 20 mg/kg, diazepam injection-based formulation (2 mg/mL)
  Clt/F: 0.726 ± 0.553 L/h
[5]; PO 20 mg/kg, diazepam injection-based formulation, 2 mg/mL vs 1 mg/mL
  Decrease of PK parameters (AUCinf, t1/2, absolute BA) in the higher concentration group: ~35%
[5]; PO 20 mg/kg, diazepam injection-based formulation, high concentration (2 mg/mL)
  Time of second peak in plasma concentration-time profile: 10 h
[5]; PO 20 mg/kg, diazepam injection-based formulation, low concentration (1 mg/mL)
  Time of second peak in plasma concentration-time profile: 6 h
[5]; PO, diazepam injection-based formulation, 1 mg/mL compared to 2 mg/mL
  Increase of AUCinf at low vs high concentration: 1.6 fold
[5]; male, Sprague-Dawley, rat, plasma, IV 2 mg/kg, DMSO formulation (1 mg/mL)
  C0: 7240 ± 2450 ng/mL
[5]; male, Sprague-Dawley, rat, plasma, IV 2 mg/kg, DMSO formulation (1 mg/mL), read-out: Vd
  Vd: 0.785 ± 0.154 L
[5]; [7]
  AUC(0-inf): 2860 ± 1090 ng·h/mL
  half-life: 3.07 ± 2.01 h
[5]; [8]
  AUC(0-inf): 17900 ng·h/mL
  Cmax: 4680 ± 2110 ng/mL
  Tmax: 0.249 ± 0.166 h
  Vd/F: 6.06 ± 2.32 L
  half-life: 14.2 ± 4.76 h
[5]; male, Sprague-Dawley, rat, plasma, po, 20 mg/kg, PO 20 mg/kg, diazepam injection-based formulation (1 mg/mL)
  Vd/F: 9.72 ± 5.17 L
[5]; [9]
  AUC(0-inf): 9250 ± 4420 ng·h/mL
  Cmax: 6240 ± 2020 ng/mL
  Tmax: 0.083 h
  Vd/F: 7.9 ± 3.01 L
  half-life: 8.96 ± 2.92 h
